{
  "source": "patent US20210002611A1",
  "about": "“IMPROVED ALPHA-BETA T PROCESSED CELL PRODUCTION METHOD” (OSAKA UNIVERSITY, priority 2018, published 2021)",
  "key": {"αβ T processed cells [1]": {"test_system": "αβ T processed cells", "assay": "Cytokine production of αβ T processed cells (Bio-plex)", "format": "cell-based, human", "settings": "culture supernatant after 24 hours in RPMI 1640 + 10% FCS without IL-2; 4 healthy donor samples; vs cont", "protocol": "The cytokine production ability of the αβ T processed cells prepared in Example 1 was determined by using Bio-plex “human cytokine G1 27 plex panel” (Bio-Rad Laboratories, Inc.) (FIG. 2A). Specifically, the αβ T processed cells prepared in Example 1 were replaced in a medium containing RPMI 1640 and 10% FCS in the absence of IL-2, and cultured. The culture supernatant after 24 hours from the start of the culture was recovered, and subjected to measurement."}, "αβ T processed cells [2]": {"test_system": "αβ T processed cells", "assay": "Perforin and granzyme B in culture supernatant after PMA/ionomycin stimulation (ELISA)", "format": "cell-based, human", "settings": "after PMA (5 ng/ml) and ionomycin (0.5 μg/ml) stimulation; 4 healthy donor samples; vs cont", "protocol": "Furthermore, perforin and granzyme B in the culture supernatant after the degranulation due to the PMA (5 ng/ml) and ionomycin (0.5 μg/ml) stimulation were determined by using Human Perforin ELISA Kit and Human Granzyme B ELISA Kit (Abcam plc.), respectively (FIG. 2B)."}, "[3]": {"test_system": "Daudi (Burkitt's lymphoma cell line)", "assay": "In vitro cytotoxic activity against cultured cells (Calcein-AM, Terascan)", "format": "cell-based, human", "settings": "cancer cells:αβ T processed cells 1:25, 2 to 4 hours; vs conventional method", "protocol": "(§1) The cytotoxic activity test by fluorescent staining was performed by using Terascan VPC2 (Minerva Tech K.K.). Cancer cell line K562 (leukemia cell line), Daudi (Burkitt's lymphoma cell line), and HOS (osteosarcoma cell line), and DLD1 (colon cancer cell line) were labeled for 30 minutes with 2.55 to 5 μg/mL of fluorescent dye Cellstein R-Calcein-AM solution (DOJINDO LABORATORIES). The labeled cancer cells and the αβ T processed cells were mixed at a ratio of 1:25, and the mixed cells were incubated for 2 to 4 hours in RPMI 1640 and 10% FBS (in the absence of IL-2). The cytotoxic activity was calculated by using changes in the fluorescence intensity of the cancer cells co-cultured with the αβ T processed cells as an index, assuming the fluorescence decay rate when treated with 1% NP40 (surfactant) as 100% (FIG. 2C)."}, "Daudi cells": {"test_system": "Daudi cells", "assay": "Degranulation: CD107a exposure on CD8+ T cells in co-culture with cancer cells", "format": "cell-based, human", "settings": "co-culture with Daudi cells 25:1, 6 hours", "text": "(§2) In the αβ T processed cells treated with 2DG as described above, secretions of effector factors such as cytokines, perforin, and granzyme B were promoted, and the cytotoxic activity was enhanced. Since exposure of CD107a localized in an intracellular vesicle onto the cell surface serves as an index of degranulation for the release of an effector factor from a cytotoxic T cell or a NK cell, the exposure of CD107a onto the cell surface by co-culture with cancer cells having different cytotoxicity was detected.\n(§3) In the presence of APC-labeled anti-CD107a antibodies (BioLegend, Inc.), the αβ T processed cells and cancer cells were mixed at a ratio of 25:1, and the mixed cells were cultured for 6 hours. After the washing of the cultured cells, the washed cells were stained with PE-labeled anti-CD8 antibodies (Beckman Coulter, Inc.). The cells thus stained were subjected to measurement by using a flow cytometer FACS CantoII (BD Biosciences), and the obtained data were analyzed by using Kaluza (Beckman Coulter, Inc.) software (FIG. 2D)."}, "K562 cells": {"test_system": "K562 cells", "assay": "Degranulation: CD107a exposure on CD8+ T cells in co-culture with cancer cells", "format": "cell-based, human", "settings": "co-culture with K562 cells 25:1, 6 hours", "text": "as §2, §3"}, "[4]": {"test_system": "sugar chains of αβ T processed cells", "assay": "LC-MS mass spectrometry analysis of sugar chains on cell surface", "format": "cell-based, human", "settings": "summary of Table 1", "text": "From the αβ T processed cells, sugar chains were purified and labeled by using BlotGlyco (Sumitomo Bakelite Co., Ltd.), and then the purified and labeled sugar chains were subjected to LC-MS mass spectrometry analysis (FIG. 5A)."}, "galectin-3": {"test_system": "galectin-3", "assay": "Galectin-3 binding ability of αβ T processed cells (flow cytometry)", "format": "cell-based", "settings": "cells cultured with 0 to 4 mM of 2DG; recombinant galectin-3, 4° C., 30 minutes; vs cont", "protocol": "The galectin-3 binding ability was detected with FITC-labeled anti-mouse IgG antibodies (Jackson ImmunoResearch Laboratories, Inc.). In this regard, as an experimental control of the galectin-3 binding, addition of 0.1 M of lactose (Sigma-Aldrich Co. LLC) for inhibiting the binding of galectin to sugar chains was performed. The measurement was performed by using a flow cytometer FACS CantoII (BD Biosciences), and the data were analyzed by using Kaluza (Beckman Coulter, Inc.) software."}, "cancer cells [5]": {"test_system": "cancer cells", "assay": "Cytotoxic activity of αβ T processed cells cultured with a glycolytic inhibitor", "format": "cell-based, human", "settings": "cells prepared with oxamate (2 mM) or bromo pyruvate (10 μM); vs cells not treated with 2DG", "protocol": "as §1\nBy using the method described in 3.2. of Example 3, the cytotoxic activity against each of cancer cells, by the αβ T processed cells treated with oxamate (2 mM) or bromo pyruvate (10 μM), which is a glycolytic inhibitor, was examined."}, "cancer cells [6]": {"test_system": "cancer cells", "assay": "Suppression of cytotoxic activity of 2DG-treated αβ T processed cells by D-mannose", "format": "cell-based, human", "settings": "2 mM D-mannose or L-mannose added to the culture with 2 mM 2DG", "protocol": "as §1\nTherefore, it was investigated whether or not the cytotoxic activity ability was suppressed by adding D-mannose to the processing of αβ T cells treated with 2DG.\nIn the preparation of Example 1, αβ T processed cells were prepared with the addition of 2 mM of D-mannose (Sigma-Aldrich Co. LLC) or L-mannose (Tokyo Chemical Industry Co., Ltd.), and the prepared αβ T processed cells were subjected to the measurement of cytotoxic activity by the method described in item 3.2."}, "αβ T processed cells [7]": {"test_system": "αβ T processed cells", "assay": "Intracellular perforin production in αβ T processed cells (flow cytometry, MFI)", "format": "cell-based, human", "settings": "2 mM D-mannose or L-mannose added to the culture with 2 mM 2DG; for Intracellular granzyme B: data not shown", "protocol": "Next, it was verified whether or not mannose inhibited the increase in the amount of intracellular perforin of the αβ T processed cells treated with 2DG. In the preparation of Example 1, αβ T processed cells were prepared with the addition of 2 mM of D-mannose (Sigma-Aldrich Co. LLC) or L-mannose (Tokyo Chemical Industry Co., Ltd.), the prepared cells were treated with IntraPrep Permeabilization Reagent (Beckman Coulter, Inc.), and the expression level of the intracellular perforin was determined by staining the cells with APC-labeled anti-perforin antibodies. The stained cells were subjected to measurement by using a flow cytometer FACS CantoII (BD Biosciences), and the data were analyzed by using Kaluza (Beckman Coulter, Inc.) software. The Mean Fluorescence Intensity (MFI) value is mean fluorescence intensity, and reflects the expression level."}, "IL-2 receptor": {"test_system": "IL-2 receptor", "assay": "IL-2 receptor expression on αβ T processed cells (flow cytometry)", "format": "cell-based, human", "settings": "cells cultured with 2DG and D-mannose", "protocol": "It is known that the intracellular perforin and granzyme B in effector cells are induced and expressed by the stimulation from IL-2 receptor on a T cell. Therefore, the expression of the IL-2 receptor was confirmed. […] The obtained resuspension was passed through a cell strainer to remove aggregates. The obtained cells were incubated for 1 hour on ice, together with PE/Cy5-labeled anti-IL-2R antibodies (BioLegend, Inc.), and FITC-labeled anti-CD3 antibodies (Beckman Coulter, Inc.), and after the washing of the incubated cells, the measurement was performed by using a flow cytometer FACS Cantoll (BD Biosciences). The data were analyzed by using Kaluza (Beckman Coulter, Inc.) software."}},
  "data": [
    {"compound": "OCC1O[C@H](O)C[C@@H](O)[C@@H]1O", "note": "(mixture of isomers) [2DG, 2-deoxy-d-glucose]", "values": [
      {"measurement": "Secretion of cytokines (IL-2, IFN-γ, TNFα)", "setting": "αβ T processed cells [1]", "value": "increased by 2DG treatment in 3 cases out of 4 cases"},
      {"measurement": "Secretion of granzyme B", "setting": "αβ T processed cells [2]", "value": "increased by 2DG treatment in 3 cases out of 4 cases"},
      {"measurement": "Secretion of perforin", "setting": "αβ T processed cells [2]", "value": "increased by 2DG treatment in 3 cases out of 4 cases"},
      {"measurement": "Cytotoxic activity against Daudi", "setting": "[3]", "value": "had not been increased"},
      {"measurement": "Exposure of CD107a onto the cell surface (degranulation of CD8+ T cells)", "setting": "Daudi cells", "value": "not promoted"},
      {"measurement": "Exposure of CD107a onto the cell surface (degranulation of CD8+ T cells)", "setting": "K562 cells", "value": "promoted"},
      {"measurement": "Effect of 2DG treatment on N-glycans (sugar chain analysis)", "setting": "[4]", "value": "abnormal increase of the mature branched N-glycan in which deoxyhexose had been introduced"},
      {"measurement": "Galectin-3 binding ability", "setting": "galectin-3", "value": "reduced in a dose-dependent manner"}
    ]},
    {"compound": "NC(=O)C(=O)O", "note": "[oxamate]", "values": [
      {"measurement": "Cytotoxic activity against cancer cells", "setting": "cancer cells [5]", "value": "no enhancement of the cytotoxic activity was observed"}
    ]},
    {"compound": "O=C[C@@H](O)[C@@H](O)[C@H](O)[C@H](O)CO", "note": "[D-mannose]", "values": [
      {"measurement": "Cytotoxic activity of αβ T processed cells cultured with 2DG plus mannose", "setting": "cancer cells [6]", "value": "reduced the effect of 2DG"},
      {"measurement": "Intracellular perforin expression level (MFI)", "setting": "αβ T processed cells [7]", "value": "reduced the effect of 2DG"},
      {"measurement": "Intracellular granzyme B", "setting": "αβ T processed cells [7]", "value": "the results were also similar"},
      {"measurement": "Expression of the IL-2 receptor on a cell surface", "setting": "IL-2 receptor", "value": "suppressed"}
    ]},
    {"compound": "O=C[C@H](O)[C@H](O)[C@@H](O)[C@@H](O)CO", "note": "[L-mannose]", "values": [
      {"measurement": "Cytotoxic activity of αβ T processed cells cultured with 2DG plus mannose", "setting": "cancer cells [6]", "value": "no influence on the cytotoxic activity of 2DG"},
      {"measurement": "Intracellular perforin expression level (MFI)", "setting": "αβ T processed cells [7]", "value": "no influence"},
      {"measurement": "Intracellular granzyme B", "setting": "αβ T processed cells [7]", "value": "the results were also similar"}
    ]}
  ]
}
